Read-outs that look alike come from different tables or passages of the source.
How the values were obtained:
229E = 229E MRC5 CPE assay (cytopathic experiment); assay type: cell-based, coronavirus 229E (HCoV-229E)
Description: (§1) Cells were seeded into microplates at a certain density and cultured overnight in a incubator at 5% CO2, 37° C. The next day, double-diluted compound and virus were added. It was set up a cell control group (cells without treatment with a compound or virus infection), a virus control group (cells infected with virus, no compound treatment) and a culture medium control group (medium only). Cells were cultured in the incubator for 3 days (229E) or 7 days (OC43). Cytotoxicity experiments were performed under the same conditions as antiviral experiments, but without virus infection. Cell viability was tested using a cell viability assay kit Cell Titer Glo (Promega).
(§2) The antiviral activity and cytotoxicity of the compounds were expressed by the inhibition rate (%) and cell viability (%) of the compounds against virus-induced cytopathic effects at different concentrations, respectively. Nonlinear fitting analysis on the inhibition rate and cell viability of the compounds were carried out with the GraphPad Prism, and the half effective concentration (EC50), the […] effective concentration (EC90), the half cytotoxic concentration (CC50) and the 90% cytotoxic concentration of the compound […] values were calculated.

OC43 = OC43 Huh7 CPE assay (cytopathic experiment); assay type: cell-based, coronavirus OC43 (HCoV-OC43); conditions: for EC50: read-out: OC43 Huh7 CPE assay (μM) EC50; for EC90: read-out: OC43 Huh7 CPE assay (μM) EC90
Description: as §1, §2

[1] = Human coronavirus 229E, MRC5, 72 h; read-out: 229E MRC5 CPE assay (μM) EC50
[2] = Human coronavirus 229E, MRC5, 72 h; read-out: 229E MRC5 CPE assay (μM) EC90
[3] = Betacoronavirus 1, Huh-7, 168 h, Huh7 cells, OC43 virus, 7 days, Cell Titer Glo
[4] = Human coronavirus 229E, MRC5, 72 h, read-out: 229E MRC5 CPE assay (μM) EC50
[5] = Human coronavirus 229E, MRC5, 72 h, read-out: 229E MRC5 CPE assay (μM) EC90
[6] = Betacoronavirus 1, OC43, Huh-7, 168 h

SMILES | EC50 (229E; [1]) | EC90 (229E; [2]) | EC50 (OC43; [3]) | EC90 (OC43; [3]) | EC50 (229E; [4]) | EC90 (229E; [5]) | EC50 (OC43; [6]) | EC90 (OC43; [6])
CCC(CC)COC(=O)[C@H](C)N[P@](=O)(OC[C@H]1O[C@@](C#N)(c2ccc3c(N)ncnn23)[C@H](O)[C@@H]1O)Oc1ccc(Nc2ccnc3cc(Cl)ccc23)cc1CN(CC)CC [Compound 062] | > 0.5 µM | > 0.5 µM | > 0.5 µM | > 0.5 µM | – | – | – | –
N#C[C@@]1(c2ccc3c(N)ncnn23)O[C@@H]2CO[P@](=O)(OCOC(=O)Oc3ccccc3)O[C@H]2[C@H]1O [Compound 228] | – | – | – | – | > 0.5 µM | > 0.5 µM | > 0.5 µM | > 0.5 µM
CCCC(CCC)C(=O)OCO[P@@](=O)(NC(C)(C)C(=O)OC(C)C)OC[C@H]1O[C@@](C#N)(c2ccc3c(N)ncnn23)[C@H](O)[C@@H]1O [Compound 123] | – | – | – | – | 0.1 to 0.5 µM | 0.1 to 0.5 µM | 0.1 to 0.5 µM | > 0.5 µM
CCCC(CCC)C(=O)OCO[P@](=O)(OC[C@H]1O[C@@](C#N)(c2ccc3c(N)ncnn23)[C@H](O)[C@@H]1O)Oc1cccc2ccccc12 [Compound 225] | > 0.5 µM | > 0.5 µM | – | – | – | – | > 0.5 µM | > 0.5 µM
CC(C)(C)C(=O)OCOP(=O)(OCOC(=O)C(C)(C)C)OC[C@H]1O[C@@](C#N)(c2ccc3c(N)ncnn23)[C@H](O)[C@@H]1O [Compound 196] | – | – | – | – | 0.1 to 0.5 µM | > 0.5 µM | 0.1 to 0.5 µM | > 0.5 µM
CCCC(CCC)C(=O)OCO[P@@](=O)(OC[C@H]1O[C@@](C#N)(c2ccc3c(N)ncnn23)[C@H](O)[C@@H]1O)Oc1cccc2ccccc12 [Compound 224] | > 0.5 µM | > 0.5 µM | – | – | – | – | > 0.5 µM | > 0.5 µM
[2H]c1cc([C@]2(C#N)O[C@H](COP(=O)(OCOC(=O)C(CCC)CCC)OCOC(=O)C(CCC)CCC)[C@@H](O)[C@H]2O)n2ncnc(N)c12 [Compound 212] | – | – | – | – | 0.1 to 0.5 µM | > 0.5 µM | 0.1 to 0.5 µM | > 0.5 µM
CCC(CC)COC(=O)[C@H](C)N[P@@](=O)(OC[C@H]1O[C@@](C#N)(c2ccc3c(N)ncnn23)[C@H](O)[C@@H]1O)Oc1ccc(Nc2ccnc3cc(Cl)ccc23)cc1CN(CC)CC [Compound 063] | > 0.5 µM | > 0.5 µM | > 0.5 µM | > 0.5 µM | – | – | – | –
CCC(CC)COC(=O)[C@H](C)NP(=O)(OCOC(=O)C(C)C)OC[C@H]1O[C@@](C#N)(c2ccc3c(N)ncnn23)[C@H](O)[C@@H]1O (stereo partly drawn) [Compound 104] | – | – | – | – | > 0.5 µM | > 0.5 µM | > 0.5 µM | > 0.5 µM
CCCC(CCC)C(=O)OCO[P@@](=O)(NC(C)(C)C(=O)OCC(CC)CC)OC[C@H]1O[C@@](C#N)(c2ccc3c(N)ncnn23)[C@H](O)[C@@H]1O [Compound 121] | – | – | – | – | 0.1 to 0.5 µM | 0.1 to 0.5 µM | 0.1 to 0.5 µM | > 0.5 µM
N#C[C@@]1(c2ccc3c(N)ncnn23)O[C@@H]2COP(=O)(O)O[C@H]2[C@H]1OC(=O)c1cccnc1 [Compound 181] | – | – | – | – | > 0.5 µM | > 0.5 µM | > 0.5 µM | > 0.5 µM
CCC(CC)COC(=O)[C@H](C)NP(=O)(OC[C@H]1O[C@@](C#N)(c2ccc3c(N)ncnn23)[C@H](O)[C@@H]1O)ONC(=N)c1ccccc1 (stereo partly drawn) [Compound 028] | – | – | – | – | > 0.5 µM | > 0.5 µM | > 0.5 µM | > 0.5 µM
CCCC(CCC)C(=O)OCO[P@](=O)(NC(C)(C)C(=O)OC(C)C)OC[C@H]1O[C@@](C#N)(c2ccc3c(N)ncnn23)[C@H](O)[C@@H]1O [Compound 122] | – | – | – | – | 0.1 to 0.5 µM | 0.1 to 0.5 µM | 0.1 to 0.5 µM | 0.1 to 0.5 µM
CCC(CC)COC(=O)[C@H](C)NP(=O)(OCOC(=O)C(C)(C)C)OC[C@H]1O[C@@](C#N)(c2ccc3c(N)ncnn23)[C@H](O)[C@@H]1O (stereo partly drawn) [Compound 193] | – | – | – | – | 0.1 to 0.5 µM | > 0.5 µM | 0.1 to 0.5 µM | > 0.5 µM
CCC(CC)COC(=O)[C@H](C)N[P@@](=O)(OCOC(=O)C(C)(C)C)OC[C@H]1O[C@@](C#N)(c2ccc3c(N)ncnn23)[C@H](O)[C@@H]1O [Compound 192] | – | – | – | – | 0.1 to 0.5 µM | > 0.5 µM | 0.1 to 0.5 µM | > 0.5 µM
CCCC(CCC)C(=O)OC(C)O[P@]1(=O)OC[C@H]2O[C@@](C#N)(c3ccc4c(N)ncnn34)[C@H](O)[C@@H]2O1 (stereo partly drawn) [Compound 141] | – | – | – | – | > 0.5 µM | > 0.5 µM | > 0.5 µM | > 0.5 µM
CCCC(CCC)C(=O)OCO[P@](=O)(NC(C)(C)C(=O)OCC(CC)CC)OC[C@H]1O[C@@](C#N)(c2ccc3c(N)ncnn23)[C@H](O)[C@@H]1O [Compound 120] | – | – | – | – | < 0.1 µM | 0.1 to 0.5 µM | < 0.1 µM | 0.1 to 0.5 µM
N#C[C@@]1(c2ccc3c(N)ncnn23)O[C@H](COP(=O)(OCOC(=O)CCCc2ccccc2)OCOC(=O)CCCc2ccccc2)[C@@H](O)[C@H]1O [Compound 266] | – | – | – | – | > 0.5 µM | > 0.5 µM | > 0.5 µM | > 0.5 µM
CCCC(CCC)C(=O)OCO[P@](=O)(OC[C@H]1O[C@@](C#N)(c2ccc3c(N)ncnn23)[C@H](O)[C@@H]1O)Oc1ccccc1 [Compound 223] | 0.1 to 0.5 µM | > 0.5 µM | – | – | – | – | > 0.5 µM | > 0.5 µM
CCCN(CCC)S(=O)(=O)c1ccc(C(=O)OCO[P@@]2(=O)OCC3O[C@@](C#N)(c4ccc5c(N)ncnn45)[C@H](O)[C@@H]3O2)cc1 (stereo partly drawn) [Compound 156] | – | – | – | – | 0.1 to 0.5 µM | > 0.5 µM | > 0.5 µM | > 0.5 µM
CCO[P@@]1(=O)OC[C@H]2O[C@@](C#N)(c3ccc4c(N)ncnn34)[C@H](O)[C@@H]2O1 [Compound 230] | > 0.5 µM | > 0.5 µM | > 0.5 µM | > 0.5 µM | – | – | – | –
CCCC(CCC)C(=O)OCO[P@]1(=S)OC[C@H]2O[C@@](C#N)(c3ccc4c(N)ncnn34)[C@H](O)[C@@H]2O1 [Compound 143] | > 0.5 µM | > 0.5 µM | – | – | – | – | > 0.5 µM | > 0.5 µM
CCC(CC)COC(=O)[C@H](C)NP(=O)(OCC(=O)OC(C)C)OC[C@H]1O[C@@](C#N)(c2ccc3c(N)ncnn23)[C@H](O)[C@@H]1O (stereo partly drawn) [Compound 103] | – | – | – | – | > 0.5 µM | > 0.5 µM | > 0.5 µM | > 0.5 µM
CCC(CC)COC(=O)[C@H](C)N[P@](=O)(OCCN(CC)CCCC(C)Nc1ccnc2cc(Cl)ccc12)OC[C@H]1O[C@@](C#N)(c2ccc3c(N)ncnn23)[C@H](O)[C@@H]1O (stereo partly drawn) [Compound 069] | – | – | – | – | > 0.5 µM | > 0.5 µM | > 0.5 µM | > 0.5 µM
[2H]c1cc([C@]2(C#N)O[C@@H]3CO[P@@](=O)(OCOC(=O)C(CCC)CCC)O[C@H]3[C@H]2O)n2ncnc(N)c12 [Compound 211] | – | – | – | – | < 0.1 µM | < 0.1 µM | 0.1 to 0.5 µM | > 0.5 µM
CC(C)OC(=O)CO[P@@]1(=O)OC[C@H]2O[C@@](C#N)(c3ccc4c(N)ncnn34)[C@H](O)[C@@H]2O1 [Compound 147] | – | – | – | – | > 0.5 µM | > 0.5 µM | > 0.5 µM | > 0.5 µM
CC(C)OC(=O)CO[P@]1(=O)OC[C@H]2O[C@@](C#N)(c3ccc4c(N)ncnn34)[C@H](O)[C@@H]2O1 [Compound 146] | – | – | – | – | > 0.5 µM | > 0.5 µM | > 0.5 µM | > 0.5 µM
